Data set [1] deals with rat brain benzodiazepine receptors (3H-diazepam receptor). The data set is described as follows: benzodiazepine receptor binding test in vitro (inhibition of specific 3H-diazepam binding to rat brain membranes). As to conditions: Ki = IC50/(1+C/KD), read-out: Ki (inhibitor constant, 3H-diazepam binding). From the text:
The pharmacological properties of the compounds of the present invention were first investigated by submitting them to the benzodiazepine receptor binding test in vitro.

Data set [2] has as its system male rats of the CFHB Wistar strain. The data set is described as follows: conditioned avoidance test (secondary conditioned response, pole climbing). The format is in vivo, rat (CFHB Wistar). The following applies: intraperitoneally, doses of between about 1/30 and 1/10 of the corresponding LD50s. How it is done: (§1) Some of the compounds of the above list were also tested in vivo in those pharmacological tests thought to be predictive of anxiolytic activity in man. Classical pharmacological tests employed to confirm the antianxiety activity were the conditioned avoidance test and the antipentylenetetrazole test in mice. The conditioned avoidance test was carried out according to the method described by Cook and Weidley in Ann. N.Y. Acad. Sci. 1957, 66, 740, and subsequently modified by Maffii (J. Pharm. and Pharmacol., 1959, 11, 129-139). In this procedure a rat is placed in a chamber with a grid floor through which electric shocks may be delivered. This chamber is also equipped with a buzzer and with a wooden pole, electrically isolated, which is suspended from the top of the experimental chamber.
The animal soon learns to escape the shock by climbing the pole (unconditioned response--U.R.) and by climbing the pole in response to the buzzer alone (conditioned avoidance response--CR). After further exposure to the situation, the rat becomes conditioned and climbs the pole before the buzzer is activated; when this response becomes stable, the rat is considered to have developed a secondary conditioned response (CR2).
(§2) The drug to be studied is then administered to these long-trained animals and its deconditioning effect is evaluated. […] Moreover, the activity of some of the compounds of the present invention has been tested in the antipentylenetetrazole test in mice. The experiments have been carried out by following essentially the methodology described by Berger in J. Pharm. Exptl. Ther. 104, 468, (1952). More particularly, a fatal dose of pentylentetrazole (140 mg/kg s.c.) was administered to groups of ten mice each, 30 minutes after a selected dose of the potential anticonvulsant compound. […] Since the animals of the control group died within 30 minutes, the effectiveness of the compounds tested at each dose tested was expressed as the number of animals of the group which were still alive two hours after the administration of pentylenetetrazole, out of the total number of animals of the group (10).

Data set [3] has as its system mice (pentylenetetrazole-induced death). The data set is described as follows: antipentylenetetrazole test in mice. The format is in vivo. As to conditions: pentylenetetrazole 140 mg/kg s.c. 30 min later, alive after 2 hours. The method, then:
as §1, §2

A short description of data set [4]: LD50 (acute toxicity, i.p.). As to conditions: in vivo, ip.

The record followed here is patent US4788186A, “6-substituted-s-triazolo[3,4-a]phthalazine derivatives” (Gruppo Lepetit S.p.A., priority 1982, dated 1988).

What is called Ki is a measure of affinity in units of concentration, obtained from inhibition or displacement. Turning to `c1ccc(-c2nnc3c4ccccc4c(N4CCCC4)nn23)cc1` [Example 27, 3-phenyl-6-(1-pyrrolidinyl)-1,2,4-triazolo[3,4-a]phthalazine], the Ki in data set [1] was 16 nM. For the molecule `CC(O)CN(C)c1nn2c(-c3ccccc3)nnc2c2ccccc12` (stereo not drawn) [Example 29], the Ki in data set [1] came out at 28 nM. Regarding `c1ccc(-c2nnc3c4ccccc4c(N4CCOCC4)nn23)cc1` [Example 30], in data set [1], the Ki came to 18 nM. Further, in data set [2], the “effect on primary conditioned and unconditioned responses (CR and U.R.)” value (“effect … (CR and U.R.)” below) is “without influencing the primary conditioned and the unconditioned responses (CR and U.R.)”; the “effect on secondary conditioned response (CR2)” value (“effect … (CR2)” below) was “effective in inhibiting the secondary conditioned response (CR2)”. Usually LD50 stands for the dose at which mortality reaches 50%. With `COc1ccc(-c2nnc3c4ccccc4c(N(C)CC(C)O)nn23)cc1` (stereo not drawn) [Example 31], the Ki in data set [1] amounted to 17 nM. In data set [2], the “effect … (CR and U.R.)” value is “without influencing the primary conditioned and the unconditioned responses (CR and U.R.)”; the “effect … (CR2)” value is recorded as “effective in inhibiting the secondary conditioned response (CR2)”. Moreover, in data set [3] (dose 10 mg/kg i.p.), the Protected/treated was 6/10. Besides, in data set [3] (dose 20 mg/kg i.p.), the Protected/treated is on record as 9/10. The same molecule displayed an LD50 in data set [4] not below 300 mg/kg. With `COc1ccc(-c2nnc3c4ccccc4c(N(C)CCCO)nn23)cc1` [Example 32, N-(3-hydroxypropyl)-N-methyl-3-(4-methoxyphenyl)-1,2,4-triazolo[3,4-a]phthalazin-6-amine], the Ki in data set [1] is 0.968 nM. Same read-out and setting: the result for `CNc1nn2c(-c3ccccc3)nnc2c2ccccc12` [Example 35] reads 46 nM. With `CCNc1nn2c(-c3ccccc3)nnc2c2ccccc12` [Example 36], the Ki in data set [1] worked out at 48 nM. For the molecule `CN(C)c1nn2c(-c3ccccc3)nnc2c2ccccc12` [Example 41], the Ki in data set [1] amounted to 21 nM.

As for `CCN(CC)c1nn2c(-c3ccccc3)nnc2c2ccccc12` [Example 42], the Ki in data set [1] was determined as 57 nM. As for `c1ccc(-c2nnc3c4ccccc4c(N4CCCCC4)nn23)cc1` [Example 43], in data set [1], the Ki is 16 nM. Same read-out and setting: the same measure for `CN1CCN(c2nn3c(-c4ccccc4)nnc3c3ccccc23)CC1` [Example 44]: 57 nM. Consider `CC1(C)CN(c2nn3c(-c4ccccc4)nnc3c3ccccc23)C1` [Example 45], for which, in data set [1], the Ki worked out at 32 nM. For the same molecule, in data set [2], the “effect … (CR and U.R.)” value was “without influencing the primary conditioned and the unconditioned responses (CR and U.R.)”; the “effect … (CR2)” value was “effective in inhibiting the secondary conditioned response (CR2)”.

For `CCN(C)c1nn2c(-c3ccccc3)nnc2c2ccccc12` [Example 46], the Ki in data set [1] stood at 14 nM. Turning to `COc1ccc(-c2nnc3c4ccccc4c(N4CCCC4)nn23)cc1` [Example 47], in data set [1], the Ki is 3.9 nM. As for `CC(=O)Nc1ccc(-c2nnc3c4ccccc4c(N4CCCC4)nn23)cc1` [Example 51], the Ki in data set [1] was 40 nM. For `COc1ccc(-c2nnc3c4ccccc4c(N4CCCC4)nn23)cc1OC` [Example 54], in data set [2], the “effect … (CR and U.R.)” value is “without influencing the primary conditioned and the unconditioned responses (CR and U.R.)”; the “effect … (CR2)” value was “effective in inhibiting the secondary conditioned response (CR2)”.

For the molecule `Fc1ccc(-c2nnc3c4ccccc4c(N4CCCC4)nn23)cc1` [Example 64], in data set [1], the Ki was found to be 20 nM. As for `COCCN(CCOC)c1nn2c(-c3ccc(OC)cc3)nnc2c2ccccc12` [Example 67], the Ki in data set [1] stood at 2.7 nM. Besides, in data set [2], the “effect … (CR and U.R.)” value is “without influencing the primary conditioned and the unconditioned responses (CR and U.R.)”; the “effect … (CR2)” value was “effective in inhibiting the secondary conditioned response (CR2)”. The Protected/treated in data set [3] (dose 5 mg/kg i.p.) is reported as 4/10. Also, the Protected/treated in data set [3] (dose 10 mg/kg i.p.) is 8/10. Further, the LD50 in data set [4] is not below 300 mg/kg. Take `CCOC(=O)C1CCN(c2nn3c(-c4ccc(OC)cc4)nnc3c3ccccc23)CC1` [Example 72]: the inhibition constant (Ki) in data set [1] amounted to 1.5 nM. Moreover, in data set [2], the “effect … (CR and U.R.)” value is “without influencing the primary conditioned and the unconditioned responses (CR and U.R.)”; the “effect … (CR2)” value is “effective in inhibiting the secondary conditioned response (CR2)”. As to `CC1CC(C)CN(c2nn3c(-c4ccccc4)nnc3c3ccccc23)C1` (stereo not drawn) [Example 73], the Ki in data set [1] is 210 nM. In addition, in data set [2], the “effect … (CR and U.R.)” value is “without influencing the primary conditioned and the unconditioned responses (CR and U.R.)”; the “effect … (CR2)” value is “effective in inhibiting the secondary conditioned response (CR2)”. Turning to `Oc1ccc(-c2nnc3c4ccccc4c(N4CCCC4)nn23)cc1` [Example 74], the Ki in data set [1] worked out at 17 nM. Take `Nc1ccc(-c2nnc3c4ccccc4c(N4CCCC4)nn23)cc1` [Example 75]: the Ki in data set [1] came to 29 nM.

As to `COc1ccc(-c2nnc3c4ccccc4c(N4CCC(O)C4)nn23)cc1` (stereo not drawn) [Example 79], in data set [1], the Ki worked out at 2.7 nM. As for `CCOc1nn2c(-c3ccccc3)nnc2c2ccccc12` [Example 85, 6-ethoxy-3-phenyl-1,2,4-triazolo[3,4-a]phthalazine], the Ki in data set [1] worked out at 7.8 nM. As for `CCCCCOc1ccc(-c2nnc3c4ccccc4c(OCC)nn23)cc1OC` [Example 93], in data set [2], the “effect … (CR and U.R.)” value is “without influencing the primary conditioned and the unconditioned responses (CR and U.R.)”; the “effect … (CR2)” value was “effective in inhibiting the secondary conditioned response (CR2)”. As to `CCOc1nn2c(-c3ccc(OC)cc3)nnc2c2ccccc12` [Example 101], the inhibitory constant (Ki) in data set [1] came to 2.9 nM. The same measure, in the same setting: the result for `COc1ccc(-c2nnc3c4ccccc4c(OCCCCO)nn23)cc1` [Example 103, 6-(4-hydroxybutoxy)-3-(4-methoxyphenyl)-1,2,4-triazolo[3,4-a]phthalazine] reads 0.427 nM; that for `CCOC(=O)CCCOc1nn2c(-c3ccc(OC)cc3)nnc2c2ccccc12` [Example 104, 4[[3-(4-methoxyphenyl)-1,2,4-triazolo[3,4-a]phthalazin-6-yl]oxy]butanoic acid ethyl ester], 0.806 nM. For `COCCOc1nn2c(-c3ccc(OC)cc3)nnc2c2ccccc12` [Example 105, 6-(2-methoxyethoxy)-3-(4-methoxyphenyl)-1,2,4-triazolo[3,4-a]phthalazine], the Ki in data set [1] stood at 0.9 nM. For the same molecule, in data set [2], the “effect … (CR and U.R.)” value is “without influencing the primary conditioned and the unconditioned responses (CR and U.R.)”; the “effect … (CR2)” value is “effective in inhibiting the secondary conditioned response (CR2)”. Besides, the Protected/treated in data set [3] (dose 15 mg/kg i.p.) is listed as 3/10. Besides, the Protected/treated in data set [3] (dose 25 mg/kg i.p.) is recorded as 8/10. Also, the LD50 in data set [4] is approximately 500 mg/kg.

Turning to `COc1ccc(-c2nnc3c4ccccc4c(N(C)CCCC#N)nn23)cc1` [Example 107, 4-[[3-(4-methoxyphenyl)-1,2,4-triazolo [3,4-a]phthalazin-6-yl]methylamino]butanonitrile], the Ki in data set [1] is 0.565 nM. As for `CCOC(=O)CCCN(C)c1nn2c(-c3ccc(OC)cc3)nnc2c2ccccc12` [Example 108], the Ki in data set [1] amounted to 0.524 nM.

With `CCS(=O)(=O)c1nn2c(-c3ccccc3)nnc2c2ccccc12` [Example 112, 6-(ethyl-sulfonyl)-3-phenyl-1,2,4-triazolo[3,4-a]phthalazine], the Ki in data set [1] worked out at 60 nM. In data set [2], the “effect … (CR and U.R.)” value is “without influencing the primary conditioned and the unconditioned responses (CR and U.R.)”; the “effect … (CR2)” value is recorded as “effective in inhibiting the secondary conditioned response (CR2)”. For the molecule `c1ccc(-c2nn3cnnc3c3ccccc23)cc1` [Example 114, 6-phenyl-1,2,4-triazolo[3,4-a]phthalazine], in data set [2], the “effect … (CR and U.R.)” value was “without influencing the primary conditioned and the unconditioned responses (CR and U.R.)”; the “effect … (CR2)” value was “effective in inhibiting the secondary conditioned response (CR2)”. `CCN(CC)CCN1C(=O)CN=C(c2ccccc2F)c2cc(Cl)ccc21` [Flurazepam, reference compound]: in data set [1], the Ki turned out to be 8.58 nM.

In the case of `O=C1Nc2ccc(Cl)cc2C(c2ccccc2)=NC1O` (stereo not drawn) [Oxazepam, reference compound], the Ki in data set [1] was 5.2 nM.
